Source: patent publication US12173349B2, “Lung protease nanosensors and uses thereof” (Massachusetts Institute of Technology, priority 2018, dated 2024)
Where no end group is shown, it is not given here. [ ]: non-standard residue; d: D form. FAM = carboxyfluorescein fluorophore label

Assays:
PA01 supernatant = assay: cleavage of FRET-paired substrates by bacterial supernatant; assay type: biochemical, Pseudomonas aeruginosa
Method: (§1) The specificity of LAS and ELA for P. aeruginosa cleavage was tested by collecting supernatants from PA01 or Staphylococcus aureus cultures and incubating them with FRET-paired substrates LAS-Q and ELA-Q in 384 well plates. […] To investigate whether the LAS and ELA substrates are also susceptible to cleavage by host proteases, each was incubated with recombinant mouse proteases.
(§2) Supernatant from PA01 and S. aureus were collected and added to substrates in 384 well plates and dequenching of FAM was monitored at 37° C. (Tecan). Fluorescence change at 30 minutes was reported. For recombinant protease assays, enzyme was added to the substrates in enzyme-specific buffer (MMP7 & 9 buffer: 50 mM Tris, 150 mM NaCl, 5 mM CaCl2), […], pH 7.5; Thrombin: PBS; NE: 100 mM HEPES, 500 mM NaCl, 0.05% Tween 20) in a 384 well plate for time-lapse fluorimetry to measure dequenching at 37° C. (Tecan).

[1] = test system: Staphylococcus aureus supernatant; assay: as above; assay type: biochemical; conditions: S. aureus culture supernatant, fluorescence change at 30 minutes
Method: as §1, §2

[2] = test system: P. aeruginosa clinical isolate strains; assay: cleavage of FRET-paired substrates by clinical isolate supernatants; assay type: biochemical, Pseudomonas aeruginosa
Method: P. aeruginosa strains isolated from de-identified clinical samples were generously provided by Dr. Deborah Hung, MD, PhD (Massachusetts General Hospital). Cultures of each were grown in LB broth overnight, then were subcultured in fresh LB and each strain grown to OD-matched mid log phase (OD600˜0.5). Supernatants were collected by centrifugation and substrate cleavage was monitored as described above.

MMP13 = MMP13 (Mus musculus, UniProt P33435); assay: recombinant host protease cleavage assay; assay type: biochemical
Method: as §1, §2

MMP7 = biological target: T1, MMP7 (Mus musculus, UniProt Q10738); assay: recombinant host protease cleavage assay; assay type: biochemical
T1 sequence (Q10738 95-264): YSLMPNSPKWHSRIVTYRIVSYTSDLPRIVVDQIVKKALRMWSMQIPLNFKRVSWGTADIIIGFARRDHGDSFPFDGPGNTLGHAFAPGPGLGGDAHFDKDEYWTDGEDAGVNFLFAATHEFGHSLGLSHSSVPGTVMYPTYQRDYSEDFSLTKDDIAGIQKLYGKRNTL
Method: as §1, §2

neutrophil elastase = biological target: T2, neutrophil elastase (Mus musculus, UniProt Q3UP87); assay: recombinant host protease cleavage assay; assay type: biochemical
T2 sequence (Q3UP87 27-265): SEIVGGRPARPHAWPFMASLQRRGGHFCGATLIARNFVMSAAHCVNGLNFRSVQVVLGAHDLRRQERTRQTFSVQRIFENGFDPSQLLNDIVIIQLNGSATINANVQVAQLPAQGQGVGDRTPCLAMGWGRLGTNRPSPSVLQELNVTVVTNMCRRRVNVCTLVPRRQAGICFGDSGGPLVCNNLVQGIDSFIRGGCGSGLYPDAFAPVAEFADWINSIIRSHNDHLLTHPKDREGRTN
Method: as §1, §2

thrombin = thrombin (Mus musculus, UniProt P19221); assay: recombinant host protease cleavage assay; assay type: biochemical
Method: as §1, §2

[3] = test system: 15 proteases in the LUAD protease panel; assay: in vitro recombinant protease screen of FRET-paired substrates; assay type: biochemical; conditions: fluorescence fold change at 45 minutes; 1 μM substrate, 12.5 nM recombinant enzyme; MP metallo-, SP serine, AP aspartic protease
Excerpt: Hundreds of peptide sequences have been previously designed and validated as protease substrates, leveraging known catalytic specificities of different protease families, published datasets and substrate sequences in databases like cutDB and MEROPS (Igarashi et al., Nucleic Acids Res 35, D546-549, 2007; Rawlings et al., Nucleic Acids Res 46, D624-D632, 2018). Fourteen of these substrates were nominated in an effort to cover the specificity profiles of metallo-, serine and aspartic endoproteases, all of which were included in the LUAD protease panel, and the catalytic activity of each protease-substrate pair was characterized. Quenched probes that incorporated the 14 peptide substrates were synthesized such that they fluoresce upon proteolytic cleavage to enable real-time monitoring of protease activity in vitro (FIG. 3A and Table 2). Each probe was incubated with each protease in the panel and fluorescence was monitored over 45 minutes. Shown are sample kinetic plots monitoring dequenching of the 14 FRET-paired probes when incubated with (above) and without (below) recombinant matrix metalloproteinase 3 (MMP3) (FIG. 3B). […] See also FIG. 19.
Fluorogenic protease substrates were synthesized by CPC Scientific. Recombinant proteases were purchased from Enzo Life Sciences, R&D Systems and Haematologic Technologies. For recombinant protease assays, fluorogenic substrates PPQ1-14 (1 μM final concentration) were incubated in 30 μL final volume in appropriate enzyme buffer, according to manufacturer specifications, with 12.5 nM recombinant enzyme at 37° C. (FIG. 3). Proteolytic cleavage of substrates was quantified by increases in fluorescence over time by fluorimeter (Tecan Infinite M200 Pro). Enzyme cleavage rates were quantified as relative fluorescence increase over time normalized to fluorescence before addition of protease. Hierarchical clustering was performed in GENE-E, using fluorescence fold changes at 45 minutes.

[4] = test system: Kras and p53 mutant lung adenocarcinoma (KP mice); assay: urinary ABN readout and random forest classification in KP lung adenocarcinoma model; assay type: in vivo; conditions: KP mice
Method: To characterize ABN performance in vivo, 14 protease-sensitive ABNs were administered to KP mice and healthy, age and sex-matched controls at 5, 7.5 and 10.5 weeks after tumor initiation. Mouse bladders were voided one hour after intrapulmonary delivery and all fresh urine produced during the subsequent hour (from 60-120 minutes after administration) was pooled and collected. LC-MS/MS was performed and peak area ratios (defined as peak area of urinary reporter divided by peak area of spiked-in internal standard) of protease-sensitive reporters were mean-normalized within each sample to reduce mouse-to-mouse variation.
A random forest classifier was then sought to be built to enable prospective diagnosis of lung cancer in KP mice. Random forest is a high-performance classifier, applicable to a wide variety of classification tasks, that generates a collection of decision trees (a “forest”) that are sampled to produce classification results (Breiman, Machine Learning 45, 5-32, 2001). A random forest classifier was trained using 50% of control mice at 5 weeks, 7.5 weeks and 10.5 weeks, as well as 50% of KP mice at 7.5 weeks (FIG. 6A). The classifier assigned a probability that each mouse belonged to either the KP cohort or the healthy control cohort (FIG. 6B, “Training” panel), achieving perfect separation of control and KP mice. The classifier was then sought to be tested on an independent validation cohort consisting of classifier-naive KP mice at 5 weeks, 7.5 weeks and 10.5 weeks post-induction, as well as the remaining control mice from each time point.
Male B6/SV129 Kras^LSL-G12D/+; Trp53^fl/fl (KP) mice between 18 and 30 weeks old were used for lung adenocarcinoma experiments. Tumors were initiated, as described previously (DuPage et al., Nat Protoc 4, 1064-1072 (2009)), by the intratracheal administration of 50 μL of adenovirus-SPC-Cre (2.5×10^8 PFU in Opti-MEM with 10 mM CaCl2)) under isoflurane anesthesia. […] Tumor growth was monitored by micro computed tomography (microCT) imaging (General Electric) and was scored by a blinded radiation oncologist using MicroView (Parallax Innovations) (Table 4). Tumor volumes were calculated by using the ROI sphere/elliptical tool.
ABN constructs (GluFib-Substrate-PEG-840 kDa) for urinary experiments were synthesized by CPC Scientific (Sunnyvale, CA). ABNs were dosed (50 μL total volume, 20 μM concentration per ABN) by intratracheal intubation, as described above. Bladders were voided 60 minutes after ABN administration and all urine produced 60-120 min after ABN administration was collected using custom tubes in which the animals rest upon 96-well plates that capture urine. Urine was pooled and frozen at −80° C. until analysis by LC-MS/MS.
Liquid chromatography/tandem mass spectrometry was performed by Syneos Health (Princeton, NJ) using a Sciex 6500 triple quadrupole instrument. Briefly, urine samples were treated with UV irradiation to photocleave the ANP linker and liberate the Glu-Fib reporter from residual peptide fragments. Samples were extracted by solid-phase extraction and analyzed by multiple reaction monitoring by LC-MS/MS to quantify concentration of each Glu-Fib mass variant. Analyte quantities were normalized to a spiked-in internal standard and concentrations were calculated from a standard curve using peak area ratio (PAR) to the internal standard. Mean normalization was performed on PAR values to account for mouse-to-mouse differences in ABN inhalation efficiency and urine concentration.
Principal component analysis (PCA) was performed on mean normalized PAR values in the R statistical environment (Team, R.C. R, R Foundation for Statistical Computing, Vienna, Austria, 2017) using the prcomp function. Binary classification was performed using the Caret package (Kuhn, M. caret: Classification and Regression Training. (2017)) in the R statistical environment). […]

[5] = test system: Eml4-Alk (EA) lung adenocarcinoma model; assay: urinary ABN readout and classification in Eml4-Alk model; assay type: in vivo; conditions: EA mice
Excerpt: To assess the generalizability of ABNs to other genetic subtypes by leveraging the Eml4-Alk (EA) model Maddalo et al., Nature 516, 423-428 (2014), an autochthonous model in which intrapulmonary administration of adenovirus encoding two short guide RNAs (sgRNAs) and Cas9 results in translocation and fusion of the Eml4 and Alk genes, yielding lung adenocarcinoma that histologically resembles human disease.
Tumors were initiated in male C57BL/6 mice between 6 and 10 weeks old as described previously (50), by intratracheal administration of 50 μL adenovirus expressing the Ad-EA vector (Viraquest) (1.5×10^8 PFU in Opti-MEM with 10 mM CaCl2)).
It was determined whether the lung nanosensors could be prospectively applied to diagnose disease. […] The classifier was also evaluated on a test cohort that combined both LUAD models and again found strong classification at 7.5 weeks and 10.5 weeks (AUC7.5 wk s=0.97; AUC10.5 wk s=0.93) (FIG. 17C).
For all urine experiments, PAR values were normalized to ABN stock concentrations and then mean normalized across all reporters in a given urine sample prior to further statistical analysis. […] Ten independent train-test trials were run for each classification problem, and classification performance was evaluated with receiver operating characteristic (ROC) statistics calculated in MATLAB. […]

Substance | cleavage by supernatant (fluorescence signal) (PA01 supernatant; PA01 culture supernatant, fluorescence change at 30 minutes) | cleavage potency by Michaelis-Menten type analysis (PA01 supernatant; range of substrate concentrations, compared with LAS substrate) | cleavage by supernatant (fluorescence signal) [1] | extent of cleavage compared with LAS-Q ([2]; bacterial-derived proteases) | strains whose supernatant gave significant cleavage ([2]; five clinical isolate strains) | cleavage by recombinant protease (MMP13) | cleavage by recombinant protease (MMP7) | cleavage by recombinant protease (neutrophil elastase) | cleavage by recombinant protease (thrombin) | protease class(es) cleaving the substrate in vitro [3] | urinary reporter enrichment [4] | urinary reporter enrichment [5]
ELA-Q: FRET-paired (FAM fluorophore, Dabcyl quencher) substrate for elastases including neutrophil elastase; includes SEQ ID NO: 47 (GAAFAGK(FAM); also: Dabcyl quencher, site not given here) | Significant increases | more potently cleaved | Significant increases | more extensively cleaved | 3 of the 5 strains | resist cleavage | resist cleavage | cleaved | resist cleavage |  |  | 
PP01: ABN: reporter e(+2G)(+6V)ndneeGFFsAr, ANP, substrate PQGIWGQ, nanocarrier PEG8-40 kDa (chain 1 [dE]G[+6V][dN][dD][dN][dE][dE]GFF[dS]A[dR]; not fully specified (some residues); printed as PP01: ABN: reporter e(+2G)(+6V)ndneeGFFsAr, ANP, substrate PQGIWGQ, nanocarrier PEG8-40 kDa; also: ANP photolabile linker, PEG8-40 kDa nanocarrier, linkage of reporter, ANP, substrate and carrier not given here) |  |  |  |  |  |  |  |  |  | metalloprotease-specific | not in KP mice | consistent enrichment
